In experiment [1] the target is T1, hPR (Homo sapiens, UniProt P06401).
T1 sequence (P06401 1-933): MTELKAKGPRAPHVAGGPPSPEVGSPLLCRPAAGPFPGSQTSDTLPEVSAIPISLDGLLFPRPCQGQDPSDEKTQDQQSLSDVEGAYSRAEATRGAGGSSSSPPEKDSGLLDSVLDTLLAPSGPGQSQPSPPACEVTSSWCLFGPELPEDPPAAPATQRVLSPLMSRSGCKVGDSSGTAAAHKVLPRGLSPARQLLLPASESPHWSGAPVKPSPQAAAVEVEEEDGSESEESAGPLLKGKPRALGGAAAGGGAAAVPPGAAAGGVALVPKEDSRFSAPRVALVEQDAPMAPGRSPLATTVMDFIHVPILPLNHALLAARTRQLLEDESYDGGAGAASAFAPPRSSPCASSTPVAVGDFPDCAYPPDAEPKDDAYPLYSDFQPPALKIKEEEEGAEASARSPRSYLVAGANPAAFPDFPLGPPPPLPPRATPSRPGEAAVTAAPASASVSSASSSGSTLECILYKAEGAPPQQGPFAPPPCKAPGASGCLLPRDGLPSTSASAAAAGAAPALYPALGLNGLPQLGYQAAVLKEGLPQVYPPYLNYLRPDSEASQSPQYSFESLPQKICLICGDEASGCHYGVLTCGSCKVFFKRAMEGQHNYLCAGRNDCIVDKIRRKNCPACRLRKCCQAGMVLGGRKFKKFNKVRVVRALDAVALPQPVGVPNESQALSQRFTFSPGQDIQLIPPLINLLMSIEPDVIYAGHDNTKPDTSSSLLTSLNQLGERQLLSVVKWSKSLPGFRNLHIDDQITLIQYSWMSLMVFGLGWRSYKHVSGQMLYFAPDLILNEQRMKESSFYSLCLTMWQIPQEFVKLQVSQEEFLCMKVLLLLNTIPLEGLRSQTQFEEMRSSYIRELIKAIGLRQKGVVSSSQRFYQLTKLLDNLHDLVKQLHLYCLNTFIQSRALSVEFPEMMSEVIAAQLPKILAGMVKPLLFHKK
The experiment can be described thus: hPR cotransfection assay in CV-1 cells, agonist mode. The experiment is classed as cell-based. The conditions noted are these: for Emax: CV-1, CV-1 cells, read-out: hPR Agonist CV-1 Cells Eff. (%); for Emax / hPR Agonist CV-1 Cells Eff. (%): relative to maximal response of progesterone as 100%.
Method: (§1) Antagonist efficacy was determined as a function (%) of maximal inhibition of a reference agonist at EC50 concentration. All the cotransfection experiments were carried out in 96-well plates by automation (Beckman Biomomek automated workstation).

The target in experiment [2] is T1, hPR. The experiment in a line: hPR cotransfection assay in CV-1 cells, antagonist mode. The experiment is classed as cell-based. Conditions: for Emax: CV-1, CV-1 cells, read-out: hPR Antagonist CV-1 Cells Eff. (%); for Emax / hPR Antagonist CV-1 Cells Eff. (%): maximal inhibition of reference agonist at EC50 concentration; for IC50 / hPR Antagonist CV-1 Cells Eff. (%): CV-1 cells.
Method: as §1

Experiment [3] deals with T2, hPR (Homo sapiens, UniProt P06401).
T2 sequence (P06401 679-933 limits assumed): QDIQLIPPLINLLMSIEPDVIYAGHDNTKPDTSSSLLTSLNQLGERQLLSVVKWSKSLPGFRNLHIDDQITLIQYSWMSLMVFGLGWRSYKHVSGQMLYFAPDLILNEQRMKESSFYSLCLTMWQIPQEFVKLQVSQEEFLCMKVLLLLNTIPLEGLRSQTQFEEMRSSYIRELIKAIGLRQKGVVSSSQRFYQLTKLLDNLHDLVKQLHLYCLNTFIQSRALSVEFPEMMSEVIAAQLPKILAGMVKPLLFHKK
The experiment in a line: T47D alkaline phosphatase assay, agonist mode. The experiment is classed as cell-based. The conditions noted are these: T47D human breast cancer cells; for Emax: T47D, read-out: hPR Agonist T47D cells Eff. (%).
From the text: (§2) The potential tissue-selectivities of the selected analogues were examined by using the T47D alkaline phosphatase assay that was developed from human breast cancer cells with endogenous PRs.

The target of experiment [4] is T2, hPR. The experiment in a line: T47D alkaline phosphatase assay, antagonist mode. Conditions: T47D human breast cancer cells; for Emax: read-out: hPR Antagonists T47D Cells Eff. (%); for IC50: read-out: hPR Antagonists T47D Cells IC50. The experiment is classed as cell-based.
From the text: as §2
Another experiment deals with T3, hPR-A (Homo sapiens, UniProt P06401).
T3 sequence (P06401 1-769 isoform P06401-2): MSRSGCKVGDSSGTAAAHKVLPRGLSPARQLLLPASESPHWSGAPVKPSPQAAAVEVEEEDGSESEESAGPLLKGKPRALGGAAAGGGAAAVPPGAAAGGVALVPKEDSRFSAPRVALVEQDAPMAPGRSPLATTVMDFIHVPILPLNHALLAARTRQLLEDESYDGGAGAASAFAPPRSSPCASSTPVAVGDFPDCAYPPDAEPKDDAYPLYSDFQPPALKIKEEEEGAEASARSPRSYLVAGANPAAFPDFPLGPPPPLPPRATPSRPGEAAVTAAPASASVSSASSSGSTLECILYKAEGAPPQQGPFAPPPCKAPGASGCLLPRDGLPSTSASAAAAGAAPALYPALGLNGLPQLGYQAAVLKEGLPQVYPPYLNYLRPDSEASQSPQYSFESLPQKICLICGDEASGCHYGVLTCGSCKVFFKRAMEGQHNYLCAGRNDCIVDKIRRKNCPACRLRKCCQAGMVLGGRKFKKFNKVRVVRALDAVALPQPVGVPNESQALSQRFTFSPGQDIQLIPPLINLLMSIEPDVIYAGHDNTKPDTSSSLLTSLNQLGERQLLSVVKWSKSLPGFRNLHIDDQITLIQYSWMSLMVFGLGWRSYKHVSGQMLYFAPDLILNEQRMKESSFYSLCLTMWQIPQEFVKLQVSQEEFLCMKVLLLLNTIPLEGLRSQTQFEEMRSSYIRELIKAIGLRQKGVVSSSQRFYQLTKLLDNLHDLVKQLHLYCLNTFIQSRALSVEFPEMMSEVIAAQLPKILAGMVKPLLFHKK
The experiment in a line: Receptor competitive binding assay. Conditions: read-out: PR binding Ki.

Experiment [5] deals with ovariectomized female rats. The experiment in a line: Multi-endpoint adult rat model, uterus/breast tissue-selectivity. The experiment is classed as in vivo. Conditions: ratio of relative efficacy to MPA in uterus verse in breast tissue at the same highest dose tested; estrone-treated ovariectomized rats, three days.
From the text: In this assay, advantage is taken of the fact that in the uterus, estrogens induce a proliferation and increase in the epithelial cell height and uterine wet weight, which can be antagonized by progestins. In the breast, estrogens induce a proliferation of the ductal network while progestins stimulate the growth of the lobular-alveolar end buds, which grow from the distal end of the ducts. […] Proliferating cells or inhibition of proliferating cells were quantitated either by measurements of cell height in sectioned and stained tissue samples or, in the case of the breast, immuno-histochemically labeled Brdu incorporated nuclei.
The next experiment concerns immature rabbits. The experiment in a line: McPhail (Clauberg) rabbit assay of progestational activity. The experiment is classed as in vivo. Conditions: Oryctolagus cuniculus; estradiol-primed immature rabbits; glandular changes of the uterus; read-out: potency (MAD in mg/kg), minimum active dose. How it is done:
The superiority of the 7,9-difluoro analogue compounds of the present invention was further characterized utilizing the McPhail rabbit model according to the following illustrative Examples. The Clauberg or McPhail assay is a classic assay utilizing rabbits to measure progestational activity. […] In this assay, immature rabbits are treated initially with estradiol, which induces growth in the uterus. This is followed by a progestin, which causes a large change in the glandular content of the uterus. It is this change in the glandular component which is a measure of the progestational activity of a progestin. The measurement of these glandular changes is carried out histologically using stained sections of the uterus. The in vivo comparison between the new 7,9-difluoro compounds and analogues with substitution patterns different from 7,9-difluoro (U.S. Pat. Nos. 5,693,646 and 5,696,127) is tabulated in Tables 7 and 8. The in vivo potency of the progestins is presented as the minimum active dose (MAD).

The mark [6] stands for this setting: CV-1 cells, read-out: hPR Agonist CV-1 Cells EC50.
The mark [7] stands for this setting: Tables 3 and 4, values without footnote, read-out: hPR agonist potencies (EC50 in nM) in the cotransfection assay.

Bounds are passed on as bounds.

As for `COC1Oc2c(F)cc(F)cc2-c2ccc3c(c21)C(C)=CC(C)(C)N3` (racemic) [Compound 32, (±)-7,9-difluoro-5-methoxy-1,2-dihydro-2,2,4-trimethyl-5H-chromeno[3,4-f]quinoline], the Emax was < 20% at hPR [1], 76% at hPR [2], 36% at hPR [3] and 35% on hPR [4]. In addition, the EC50 at hPR [1] (setting [6]) is > 10000 nM; at hPR [3] it was 315 nM. For the same compound, the IC50 against hPR [2] is 75 nM; on hPR [4], 250 nM. Moreover, the inhibition constant (Ki) on hPR-A was 37 nM.

Consider `CC1=CC(C)(C)Nc2ccc3c(c21)C(c1cc2ccccc2s1)Oc1c(F)cc(F)cc1-3` (single isomer, unassigned; (-)) [Compound 64, (−)-7,9-difluoro-5-(benzo[b]thien-2-yl)-1,2-dihydro-2,2,4-trimethyl-5H-chromeno[3,4-f]quinoline], for which the uterus/breast tissue-selectivity in experiment [5] is reported as 2.8. Further, the minimal effective dose in the experiment on immature rabbits came to 0.25 mg/kg.

As for `CC1=CC(C)(C)Nc2ccc3c(c21)/C(=C/c1cccc(F)c1)Oc1ccc(F)cc1-3` [Formula II X=9-F 3-F-Ph, reference compound], the EC50 on hPR [1] (setting [7]) was found to be 7 nM. Moreover, the uterus/breast tissue-selectivity in experiment [5] was determined as 2.2.

As for `C#C[C@]1(O)CC[C@H]2[C@@H]3CCC4=CC(=O)CC[C@@H]4[C@H]3C(=C)C[C@@]21CC` [3-ketodesogestrel, reference compound], the EC50 on hPR [1] (setting [6]) amounted to 0.1 nM. For the same compound, at hPR [1] (CV-1 cells), the “hPR Agonist CV-1 Cells Eff. (%)” value worked out at 190%. Also, on hPR [2], the IC50 is > 10000 nM; the “hPR Antagonist CV-1 Cells Eff. (%)” value was “na (na = not active (i.e. efficacy of <20 and potency of >10,000))”. In addition, at hPR [3], the EC50 turned out to be 0.2 nM and the “hPR Agonist T47D cells Eff. (%)” value came to 94%. Besides, on hPR [4], the “hPR Antagonists T47D Cells Eff. (%)” value is “na (na = not active (i.e. efficacy of <20 and potency of >10,000))”; the half-inhibitory concentration (IC50) is > 10000 nM. Further, the Ki on hPR-A was 0.3 nM.

Regarding `CN(C)c1ccc([C@H]2C[C@]3(C)[C@@H](CC[C@]3(O)CCCO)[C@@H]3CCC4=CC(=O)CCC4=C32)cc1` [ZK299, reference compound], the Emax on hPR [1] was < 20%; at hPR [2] it was 99%; on hPR [3], < 20%; on hPR [4], 86%.

On to `CC1=CC(C)(C)Nc2ccc3c(c21)C(c1ccc(Cl)cc1)Oc1ccccc1-3` (stereo not shown) [Formula I X=H 4-Cl-Ph, reference compound], for which the uterus/breast tissue-selectivity in experiment [5] is on record as 1.5.

With `CC1=CC(C)(C)Nc2ccc3c(c21)C(c1cccc(C(F)(F)F)c1)Oc1ccccc1-3` (stereo not shown) [Formula I X=H 3-CF3-Ph, reference compound], the uterus/breast tissue-selectivity in experiment [5] was found to be 3.5.

Consider `CC1=CC(C)(C)Nc2ccc3c(c21)/C(=C/c1ccccc1F)Oc1c(F)cc(F)cc1-3` [Compound 12, 7,9-difluoro-5(Z)-(2-fluorobenzylidene)-1,2-dihydro-2,2,4-trimethyl-5H-chromeno[3,4-f]quinoline], for which the EC50 at hPR [1] (setting [7]) amounted to 2.55 nM. Further, the minimal effective dose with immature rabbits amounted to 0.5 mg/kg.

As for `C#C[C@]1(O)CC[C@H]2[C@@H]3CCC4=CC(=O)CC[C@@H]4[C@H]3CC[C@@]21CC` [Levonorgestrel, reference compound], the Emax was 216% at hPR [1], < 20% on hPR [2], 96% on hPR [3] and < 20% on hPR [4].

On to `C#CCC1Oc2c(F)cc(F)cc2-c2ccc3c(c21)C(C)=CC(C)(C)N3` (racemic) [Compound 71, (±)-7,9-difluoro-5-(2-propynyl)-1,2-dihydro-2,2,4-trimethyl-5H-chromeno[3,4-f]quinoline], for which, in the experiment on immature rabbits, the minimal effective dose is < 0.5 mg/kg.

In the case of `CC1=CC(C)(C)Nc2ccc3c(c21)C(c1ccc(Cl)c(C)c1)Oc1ccc(F)cc1-3` (stereo not shown) [Formula I X=9-F 4-Cl-3-Me-Ph, reference compound], in the experiment on immature rabbits, the minimal effective dose stood at 1 mg/kg.

In the case of `CC1=CC(C)(C)Nc2ccc3c(c21)/C(=C/C#N)Oc1c(F)cc(F)cc1-3` [Compound 24, 7,9-difluoro-5(Z)-cyanomethylidene-1,2-dihydro-2,2,4-trimethyl-5H-chromeno[3,4-f]quinoline], the Emax on hPR [1] was 52%; on hPR [2], < 20%; at hPR [3] it was 72%; on hPR [4], 26%. For the same compound, the EC50 turned out to be 9.4 nM on hPR [1] (setting [6]) and 79 nM at hPR [3]. Moreover, the IC50 is > 10000 nM at hPR [2] and 830 nM on hPR [4]. The Ki at hPR-A was 58 nM.

As to `CC#C[C@]1(O)CC[C@H]2[C@@H]3CCC4=CC(=O)CCC4=C3[C@@H](c3ccc(N(C)C)cc3)C[C@@]21C` [RU486, mifepristone, reference compound], the “hPR Agonist CV-1 Cells Eff. (%)” value at hPR [1] (CV-1 cells) is “na (na = not active (i.e. efficacy of <20 and potency of >10,000))”. Further, the “hPR Antagonist CV-1 Cells Eff. (%)” value at hPR [2] was 94%. Also, the “hPR Agonist T47D cells Eff. (%)” value on hPR [3] is “na (na = not active (i.e. efficacy of <20 and potency of >10,000))”. Also, the “hPR Antagonists T47D Cells Eff. (%)” value at hPR [4] came out at 94%.

As to `CC1=CC(C)(C)Nc2ccc3c(c21)C(CC(=O)c1ccccc1)Oc1c(F)cc(F)cc1-3` (racemic) [Compound 45, (±)-7,9-difluoro-5-(2-oxo-2-phenylethyl)-1,2-dihydro-2,2,4-trimethyl-5H-chromeno[3,4-f]quinoline], the Emax at hPR [1] was < 20%; on hPR [2] it was 79%; on hPR [3] it was 77%; at hPR [4] it was < 20%. In addition, the EC50 is > 10000 nM on hPR [1] (setting [6]) and 195 nM on hPR [3]. For the same compound, the IC50 was 42 nM against hPR [2] and > 10000 nM on hPR [4]. Further, the Ki on hPR-A came out at 18 nM.

The values are drawn from patent US7163946B2 (Ligand Pharmaceuticals Incorporated, priority 2002, dated 2007).
